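Five compound concentrations were applied to cells in 96-well plates for 48 hours; endpoints were derived by simple linear interpolation of the resulting dose-response curve. GI50 is the concentration that inhibits growth by half.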 Calls of active or inactive are those of the source. No stated cut-off is given here; in the data, active = GI50 up to about 1.1 µM and inactive = higher.
What was measured:
Experiment in all cases: NCI-60 cell line screen, 48 h
UACC-257 = test system: UACC-257
NCI-H226 = test system: NCI-H226
ACHN = test system: ACHN
K562 = test system: K562
SK-MEL-5 = test system: SK-MEL-5
OVCAR-8 = test system: OVCAR-8
SK-OV-3 = test system: SK-OV-3
TK-10 = test system: TK-10
SF-539 = test system: SF-539
CCRF-CEM = test system: CCRF-CEM
HCT-116 = test system: HCT-116
OVCAR-3 = test system: OVCAR-3
HT-29 = test system: HT-29
EKVX = test system: EKVX
SF-295 = test system: SF-295
LOX IMVI = test system: LOX IMVI

Measured: GI50

[O-][Cl+3]([O-])([O-])O.c1ccc(/N=c2\snc(-c3ccccc3)s2)cc1
inactive: UACC-257 > 100 µM | NCI-H226 > 100 µM | ACHN > 100 µM | K562 > 100 µM | SK-MEL-5 > 100 µM | OVCAR-8 > 100 µM | SK-OV-3 > 100 µM | TK-10 > 100 µM | SF-539 > 100 µM | CCRF-CEM > 100 µM | HCT-116 > 100 µM

N#C[C@]12CC3(CC[C@H]1CC1(C2)OCCO1)OCCO3
inactive: UACC-257 > 100 µM | OVCAR-3 > 100 µM | NCI-H226 > 100 µM | ACHN > 100 µM | K562 > 100 µM | SK-MEL-5 > 100 µM | OVCAR-8 > 100 µM | SK-OV-3 > 100 µM | TK-10 > 100 µM | SF-539 > 100 µM | CCRF-CEM > 100 µM | HCT-116 > 100 µM

Cc1ccc(S(=O)(=O)Nc2cccc(C)c2C)cc1
inactive: HT-29 74.1 µM | UACC-257 30.8 µM | OVCAR-3 34 µM | NCI-H226 56.4 µM | EKVX 73.5 µM | K562 36.6 µM | SK-MEL-5 31.2 µM | OVCAR-8 72.4 µM | SF-295 33.7 µM | SK-OV-3 56.9 µM | TK-10 65.3 µM | SF-539 > 100 µM | CCRF-CEM 40.5 µM | HCT-116 49.1 µM | LOX IMVI 62.5 µM

COC(=O)c1c(O)ccc(O)c1C(C(C)=O)C(C)=O
inactive: HT-29 > 100 µM | UACC-257 > 100 µM | OVCAR-3 > 100 µM | EKVX > 100 µM | K562 > 100 µM | SK-MEL-5 > 100 µM | OVCAR-8 > 100 µM | SF-295 > 100 µM | SK-OV-3 > 100 µM | TK-10 > 100 µM | SF-539 > 100 µM | CCRF-CEM > 100 µM | HCT-116 > 100 µM | LOX IMVI > 100 µM

O=C1NC(=S)NC(=O)C1=Cc1ccc[nH]1
inactive: HT-29 4.38 µM | UACC-257 20.9 µM | OVCAR-3 7.38 µM | NCI-H226 14.5 µM | EKVX 24 µM | ACHN 15 µM | K562 11.2 µM | SK-MEL-5 26.5 µM | OVCAR-8 4.71 µM | SF-295 10.5 µM | SK-OV-3 > 100 µM | TK-10 17.4 µM | SF-539 15.1 µM | CCRF-CEM 19.2 µM | HCT-116 3.48 µM | LOX IMVI 9.06 µM

Oc1c(Cl)c2nccnc2c2ccccc12
inactive: HT-29 > 100 µM | UACC-257 > 100 µM | OVCAR-3 > 100 µM | NCI-H226 > 100 µM | EKVX > 100 µM | ACHN > 100 µM | K562 > 100 µM | SK-MEL-5 > 100 µM | OVCAR-8 > 100 µM | SF-295 > 100 µM | SK-OV-3 > 100 µM | TK-10 > 100 µM | SF-539 > 100 µM | CCRF-CEM > 100 µM | HCT-116 > 100 µM

Cc1[nH]c2ccccc2c1C(=O)CC1(O)C(=O)Nc2c(Cl)cc(Cl)cc21 (stereo unspecified)
inactive: HT-29 54.3 µM | UACC-257 17.2 µM | OVCAR-3 16.6 µM | NCI-H226 18.8 µM | ACHN 21.9 µM | K562 20.9 µM | SK-MEL-5 17.2 µM | OVCAR-8 24.3 µM | SF-295 19.5 µM | SK-OV-3 72.3 µM | TK-10 39.4 µM | SF-539 26.4 µM | CCRF-CEM 20.3 µM | HCT-116 35.1 µM | LOX IMVI 27 µM

CC1=C(C(=O)Nc2ccccc2C)C(c2ccccc2C)C(C(=O)Nc2ccccc2C)=C(C)N1
inactive: HT-29 20.3 µM | UACC-257 27.5 µM | OVCAR-3 16.6 µM | NCI-H226 21.5 µM | EKVX 20.7 µM | ACHN 15.7 µM | K562 19.8 µM | OVCAR-8 19.1 µM | SF-295 20.1 µM | TK-10 28.8 µM | SF-539 > 10 µM | HCT-116 20.4 µM | LOX IMVI 15 µM

NC1C2(CCCCCC2)NC(=O)C12CCCCCC2 (stereo unspecified)
inactive: HT-29 > 100 µM | UACC-257 > 100 µM | OVCAR-3 > 100 µM | EKVX > 100 µM | ACHN > 100 µM | K562 > 100 µM | SK-MEL-5 > 100 µM | OVCAR-8 > 100 µM | SF-295 > 100 µM | SK-OV-3 > 100 µM | TK-10 > 100 µM | SF-539 > 100 µM | CCRF-CEM > 100 µM | HCT-116 > 100 µM | LOX IMVI > 100 µM

Source: ChEMBL document CHEMBL1201862, “PubChem BioAssay data set” (2004)
